Converted amounts (≈) assume the structure as drawn. “And” between values parts separate entries of the source, which are not always exact repeats. Equal entries are not always repeated. Where two headings read alike, the source gives them in different places.
Legend:
NQO1 = NQO1 (Homo sapiens, UniProt P15559); test: NQO1 enzymatic measurements in vitro; format: biochemical; details: 1 μM substrate
Protocol: As further evidence that the activity of these DNQ derivatives is dependent on their ability to be reduced by NQO1, full enzymatic measurements in vitro were performed. We found a strong correlation between catalytic efficiency of substrates in vitro and their cell culture toxicity. […] This provides strong evidence that the cytotoxicity of DNQ and its derivatives are dependent primarily upon the activity of NQO1 within the cell.

[1] = Solubility in organic solvents; format: physicochemical; details: for solubility: organic solvent or mixture, thermodynamic from solid
Protocol: The solubility of DNQ derivatives in organic solvents was determined by measuring the amount of a given solvent required to dissolve a known amount of compound. Solvent was added to the compound in 50 μL aliquots and the slurry was sonicated. […] Solubility was assessed in DMSO, dichloromethane, and 33% methanol in dichloromethane (FIGS. 9, 10, and 11, respectively).

[2] = Maximum tolerated dose in mice; details: mouse, ip
Source text: Because of the difficulty of repeated tail vein injections in mice, our group is using IP administration of compound.
All of these derivatives are currently being assessed for their maximum tolerated dose (MTD) in healthy mice. Compounds are formulated in HPβCD and delivered by IP injection to two mice once daily for five days.

[3] = Solubility in organic solvents; format: physicochemical; details: organic solvent or mixture, thermodynamic from solid; THF; Table 1
MCF-7 cells = test: Cytotoxicity to MCF-7 cells with or without 25 μM dicoumarol (sulforhodamine B assay); format: cell-based, human; details: for IC50: Homo sapiens; for Fold Protection of MCF7 cells w/ 25 μM dicoumarol: Table 1
Summary of the method: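 MCF-7 cells, which express high NQO1, were exposed to compounds for 2 hours with or without 25 μM dicoumarol. They were then washed and kept 72 hours in fresh media. Cell death was measured by sulforhodamine B assay.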

[4] = Aqueous solubility in pH 7.4 PBS by LC-MS; format: physicochemical
Summary of the method: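 Solid compound was sonicated 30 min in pH 7.4 PBS (the bath warmed to 45 °C, samples were cooled before filtration) and passed through a 0.45 μm filter. Filtrate was quantified by LC-MS with UV at 275 nm against a 1–100 μM DNQ calibration curve, which was also applied to derivatives. Strongly coloured filtrates were diluted 10-fold in PBS.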

[5] = Solubility in 20% HPβCD solution (pH modulation protocol); format: physicochemical; details: for solubility: pH 7.4, aqueous with cosolvent or surfactant or cyclodextrin, thermodynamic from solid, Table 4.3
Protocol: The protocol for formulating DNQ compounds in HPβCD is as follows: the DNQ compound is slurried in a 20% solution of HPβCD in pH 7.4 PBS and the pH is then increased by the addition of 10 M NaOH to induce dissolution of the DNQ compound. The pH is returned to pH 7.5-8.0 by the careful addition of 1 M HCl. A 3.3 mM solution of the DNQ compound can be made by this method which is stable at least 24 hours. This represents a 30-fold increase in solubility of DNQ over PBS alone.
Although we were pleased to find active derivatives of DNQ that were up to 4-fold more soluble in water—sufficiently soluble for continuous IV infusion for human administration—this level of solubility was insufficient for animal studies by bolus injection. […] We used the same pH modulation protocol outlined for DNQ described in the specification above. The results are organized in Table 4.3 and FIG. 8. While all compounds were more soluble in HPβCD than in buffer alone, the fold increase in solubility varied widely.

[6] = 2:1 CH2Cl2:MeOH, Table 4.3, read-out: Solubility in 2:1 CH2Cl2:MeOH
[7] = CH2Cl2:MeOH 2:1, Table 1, read-out: CH2Cl2:MeOH 2:1 solubility
[8] = CH2Cl2, Table 1, read-out: CH2Cl2 solubility
[9] = DMSO, Table 1, read-out: DMSO solubility
[10] = MCF7, Table 1, read-out: MCF7 IC50
[11] = MCF7, Table 4.2, no DIC, ± s.e., read-out: IC50 vs. MCF-7 cells
[12] = MCF7, classification in figure legends of FIGS. 7-11, read-out: IC50 ("active" / generally "inactive" compounds)
[13] = MCF7, read-out: IC50 vs. MCF-7 cells +25 μM DIC, Table 4.2, +25 μM DIC, ± s.e.
[14] = phosphate buffered saline, pH 7.4, aqueous buffer, thermodynamic from solid, PBS pH 7.4, Table 4.3
[15] = 20% HPβCD in pH 7.4 PBS, 20% HPβCD

NQO1, sequence (P15559 whole entry): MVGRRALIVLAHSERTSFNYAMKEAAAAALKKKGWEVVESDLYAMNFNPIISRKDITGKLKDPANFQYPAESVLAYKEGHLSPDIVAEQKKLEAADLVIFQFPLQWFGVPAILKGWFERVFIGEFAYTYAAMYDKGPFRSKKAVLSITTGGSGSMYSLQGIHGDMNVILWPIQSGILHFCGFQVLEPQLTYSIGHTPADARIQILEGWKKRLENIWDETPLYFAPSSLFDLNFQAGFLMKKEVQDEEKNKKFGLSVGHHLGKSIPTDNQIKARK

| SMILES | NQO1 Initial Velocity @ 1 μM (NQO1) | Solubility in CH2Cl2 ([1]; CH2Cl2, Table 4.3) [mM] | Solubility in DMSO ([1]; DMSO, Table 4.3) [mM] | solubility [1, 6] [mM] | solubility [1, 7] [mM] | solubility [1, 8] [mM] | solubility [1, 9] [mM] | MTD at 5 days ([2]; in vivo) | solubility [3] [mM] | IC50 (MCF-7 cells; [10]) [nM] | IC50 (MCF-7 cells; [11]) [nM] | IC50 (MCF-7 cells; [12]) [nM] | IC50 (MCF-7 cells; [13]) [nM] | Fold Protection of MCF7 cells w/ 25 μM dicoumarol (MCF-7 cells) | Fold protection by DIC (MCF-7 cells; Table 4.2) | solubility at 30 min [4, 14] [mM] | solubility [5, 15] [mM] | further results |
| --- | --- | --- | --- | --- | --- | --- | --- | --- | --- | --- | --- | --- | --- | --- | --- | --- | --- | --- |
| Cc1cc(=O)[nH]c2c1C(=O)c1c(C)cc(=O)n(CC(C)C)c1C2=O [Compound 87] | 1900 ± 200 | 180 (≈ 58700 µg/mL) | 110 (≈ 35900 µg/mL) | 140 (≈ 45700 µg/mL) | 140 (≈ 45700 µg/mL) | 180 (≈ 58700 µg/mL) | 110 (≈ 35900 µg/mL) | 14 mg/kg and 44 µmol/kg | 34 (≈ 11100 µg/mL) | 250 | 230 ± 20 | < 500 | 1100 ± 100 | 6.1 | 4.8 | 0.115 (≈ 37.5 µg/mL) | 13 (≈ 4240 µg/mL) |  |
| Cc1cc(=O)[nH]c2c1C(=O)c1c(C)cc(=O)n(C)c1C2=O [DNQ, Deoxynyboquinone, reference compound] | 1900 ± 100 | 0.7 (≈ 199 µg/mL) | 3.1 (≈ 881 µg/mL) | 8.5 (≈ 2420 µg/mL) | 8.5 (≈ 2420 µg/mL) | 0.7 (≈ 199 µg/mL) | 3.1 (≈ 881 µg/mL) | 5 mg/kg | 0.42 (≈ 119 µg/mL) | 190 | 130 ± 20 | < 500 | 1800 ± 300 | 7.8 | 14 | 0.115 (≈ 32.7 µg/mL) | 3.3 (≈ 938 µg/mL) | MTD ([2]; in vivo): ~5 mg/kg; MTD at 5 days [2]: 18 µmol/kg; IC50 (MCF-7 cells; MCF7, 2 h, Table 4.1, 2 h exposure, no DIC, ± s.e., read-out: IC50 vs. MCF-7 cells): 130 ± 20 nM; IC50 (MCF-7 cells; MCF7, read-out: IC50 vs. MCF-7 cells +25 μM DIC, Table 4.1, +25 μM DIC, ± s.e.): 1700 ± 300 nM; Fold protection by DIC (MCF-7 cells; Table 4.1): 14; solubility at 30 min ([4]; pH 7.4 PBS): 0.1 mM (≈ 28.4 µg/mL); solubility at 30 min ([4]; phosphate buffered saline, pH 7.4, aqueous buffer, thermodynamic from solid, pH 7.4 PBS): 0.115 mM (≈ 32.7 µg/mL); fold increase in solubility in HPβCD over PBS alone ([5]; 20% HPβCD): 30 fold; solution concentration in HPβCD ([5]; 20% HPβCD in pH 7.4 PBS): 3.3 mM; solution concentration a 40% HPβCD solution would permit ([5]; 40% HPβCD, linear extrapolation): 6.6 mM |

— patent US10285986B2, “Compounds and anti-tumor NQO1 substrates” (The Board of Trustees of the University of Illinois, priority 2011, dated 2019)
